Test results reported in patent US20170095440A1, “METHOD OF TREATING CANINE PANCREATITIS” (CK9, LLC, priority 2014, published 2017).
Several values for one entry are separate records, joined by “and”; a condition that tells them apart may be missing. Identical values can stand only once. Entries after “also recorded” stand apart in the source; their conditions may differ.

Experiments:
[1] = test system: Han Wistar rats; experiment: Multiple-dose tolerance study, oral gavage 3 times a day for 7 days; format: in vivo, rat
Protocol: The following parameters and end points were evaluated in the multiple-dose phase of this study: clinical signs, body weights, body weight changes, food consumption, and gross necropsy findings.
A total of 18 male and 24 female Han Wistar rats were received from Charles River Laboratories, Raleigh, N.C. The animals were examined and weighed on the day following receipt. The rising-dose phase animals were 8 weeks old and weighed between 176 g and 255 g at initiation of dosing and the multiple-dose phase animals were 8 weeks old and weighed between 172 g and 259 g at initiation of dosing.
For the multiple-dose study, the test and control articles were administered to the appropriate animals 3 times a day by oral gavage from Days 1 to 7. The doses were administered 8 hours±30 minutes apart. The dose volume for each animal was based on the most recent body weight measurement. The doses were given using a syringe with attached gavage cannula. The first day of dosing was designated as Study Day 1.
Cage side observations were performed once daily, beginning during Week −1 and throughout the dosing phase. During the dosing period, these observations were performed 1 to 3 hours post the first daily dose.
The animals were removed from the cage and a detailed clinical observation was performed on the day of randomization and Days 1 and 8. Each animal was weighed on the day of randomization (Day −4) and Days 1 to 8. Food consumption was quantitatively measured for each animal weekly, starting Day −4, throughout the dosing phase.
Multiple-dose study animals were subjected to a complete necropsy examination, which included evaluation of the carcass and musculoskeletal system; all external surfaces and orifices; cranial cavity and external surfaces of the brain; and thoracic, abdominal, and pelvic cavities with their associated organs and tissues. Necropsy examinations were conducted under the supervision of a board-certified veterinary pathologist.
For the multiple-dose study, numerical data collected on scheduled occasions for the listed variables were analyzed as indicated according to sex and occasion. Descriptive statistics number, mean and standard deviation (or % CV or SE when deemed appropriate) were reported whenever possible. Inferential statistics were performed according to the matrix below when possible, but excluded semi-quantitative data, and any group with less than 3 observations.
Levene's test was used to assess the homogeneity of group variances parametric assumption at the 5% significance level. Datasets with at least 3 groups were compared using an overall one-way ANOVA F-test or Kruskal-Wallis test (if parametric assumptions were not met) at the 5% significance level. The above pairwise comparisons were conducted using a two-sided Dunnett's or Dunn's test, respectively, if the overall test was significant. Datasets with 2 groups were compared using a two-sided t-test or Wilcoxon Rank-Sum test, respectively. All significant pairwise comparisons were reported at the 0.1%, 1%, and 5% significance levels.

[2] = test system: rat models; settings: cited from earlier work
[3] = test system: dogs with suspected chronic pancreatitis; experiment: Serum S100A12 before and after treatment, clinical trial; format: in vivo, dog; settings: for Change in serum S100A12, pre- vs post-treatment: methanesulfonate
Protocol: Treatment effects on overall health status, quality of life, and clinical signs were also evaluated with serum biochemistry profiles, complete blood counts, and owner questionnaires.
Dogs were identified by screening current submissions to the Gastrointestinal Laboratory at Texas A&M indicative of pancreatitis (canine pancreas-specific lipase≧400 μg/L) using an immunoassay for measurement of canine pancreas-specific lipase in canine serum known as the spec CPL® Test (IDEXX, Laboratories). A number of potential study participants were directly referred to the investigator by veterinarians, based on positive pet-side SNAP cPL® Test (IDEXX Laboratories, Westbrook, Me., USA) results and concomitant clinical signs. After ascertaining individual suitability of a patient with the referring veterinarian, serum canine pancreas-specific lipase concentration, serum biochemistry profile, and complete blood count were evaluated or re-evaluated 12±4 days after collection of the initial sample submission to the Gastrointestinal Laboratory. Based on the assumption that consecutive canine pancreas-specific lipase elevations indicate chronic pancreatitis, enrollment was offered for patients with canine pancreas-specific lipase concentrations≧400 μg/L, serum triglyceride concentrations below 500 mg/dL, and no indication of hepatic, renal, or other organ disease. […] Owner consent was required prior to phlebotomy and for enrollment into the trial.
Twelve enrolled dogs received camostat capsules at a dosage of 4 mg/kg q 8 hrs, for a total dose of 12 mg/kg q 24 hrs. […] Individual patients were medicated for between 21 to 31 days.
Blood samples were collected before beginning the treatment and after completion of the treatment period. Complete blood count (red blood cell count, hematocrit, mean corpuscular volume, mean corpuscular hemoglobin, mean corpuscular hemoglobin concentration, differential and absolute white blood cell count, red blood cell count, hemoglobin, platelet estimate, red blood cell morphology, white blood cell morphology, and hemoparasites) was evaluated at the Texas Veterinary Medical Diagnostic Laboratory (TVMDL). A serum chemistry profile with electrolytes (glucose, blood urea nitrogen, creatinine, calcium, phosphorus, albumin, total protein, total bilirubin, alkaline phosphatase, alanine amino transferase, aspartate amino transferase, γ-glutamyl transferase, cholesterol, triglycerides, globuline, sodium, potassium, and chloride) was performed on a SIRRUS analyzer (Stanbio, Boerne, Tex., USA). […]
Pre-treatment and post-treatment results for all diagnostic tests were statistically analyzed using Prism 6 (GraphPad Software, La Jolla, Calif., USA). […]

Compound: CN(C)C(=O)COC(=O)Cc1ccc(OC(=O)c2ccc(NC(=N)N)cc2)cc1 [Camostat Mesilate, N,N-dimethylcarbamoylmethyl-4-(4-guanidinobenzoyloxy)phenylacetate methanesulfonate]
- Clinical observations ([1]; 1300 mg/kg/day, Day 8, methanesulfonate): Most of the 1300 mg/kg/day animals were noted to be thin and 3/3 males and 2/3 females were noted to be thin
- Necropsy observation not considered test article related ([1]; 1300 mg/kg/day, male): small seminal vesicle was noted in one 1300 mg/kg/day male
- Overall conclusion of multiple dosing ([1]; 3 times per day for 7 days): body weight loss and decreased food consumption
- Gross necropsy findings ([1]; 100, 550, 1300 mg/kg/day): no toxicologically meaningful gross necropsy findings
- Survival ([1]; 100, 550, 1300 mg/kg/day, 3 times a day, 7 days, euthanasia Day 8, methanesulfonate): All animals survived to scheduled euthanasia; also recorded: No animals died
- Mean body weights compared to controls ([1]; 100 or 550 mg/kg/day): no statistically significant or toxicologically meaningful differences
- Clinical observations ([1]; 100 or 550 mg/kg/day, 7 days): no clinical observations noted
- Mean body weight, deviation from controls ([1]; 100 or 550 mg/kg/day, Day 8): ≤ 4.4%
- Mean food consumption, statistical comparison with controls ([1]; Days 1 to 7, all dose groups): no statistically significant differences
- Mean body weight lower than controls ([1]; females, Day 8, 1300 mg/kg/day, statistically decreased Days 5 to 8): 19%
- Body weight change Days 1 to 8 ([1]; females, 1300 mg/kg/day): −13%
- Mean body weight lower than controls ([1]; males, Day 8, 1300 mg/kg/day, statistically decreased Days 4 to 8): 25%
- Body weight change Days 1 to 8 ([1]; males, 1300 mg/kg/day): −15%
- High-dose level chosen from the tolerance study ([1]; rats, oral, 3 times per day): 1300 mg/kg/day
- Fibrosis associated with chronic pancreatitis [2]: suppress fibrosis
- Microscopic signs of inflammation [2]: markedly decrease microscopic signs of inflammation
- Pro-inflammatory cytokine production [2]: suppress pro-inflammatory cytokine production
- Change in serum S100A12, pre- vs post-treatment ([3]; 4 mg/kg q 8 hrs, n=11): decreased significantly
- Serum S100A12 concentration post-treatment (median) ([3]; 4 mg/kg q 8 hrs, n=11, pre-treatment median 160, post range 43-449, p=0.0010): 88 µg/L
- Change in serum S100A12, pre- vs post-treatment ([3]; all treated dogs combined, n=28): no significant difference; also recorded: did not change significantly; also recorded: did not lead to any significant changes
- Serum S100A12 concentration post-treatment (median) ([3]; all treated dogs combined, n=28, pre-treatment median 154, post range 43-746, p=0.1438): 133 µg/L
